Patent publication US10392389B2, “Heterocyclic compounds for the inhibition of PASK” (BioEnergenix, LLC, priority 2012, dated 2019)

Target: T1, PASK (Invitrogen) (Homo sapiens, UniProt Q96RG2)
T1 construct: IC50 Kinase Domain; purchased Invitrogen
Experiment: PAS Kinase FRET Assay
Assay type: biochemical
Conditions: PAS kinase TR-FRET assay (665 nm/615 nm); read-out: IC50 Kinase Domain
Text: Biochemical Assay for hPASK Activity
The aim of the FRET assay is to determine the inhibition potential of test compounds on targeted kinase. This assay platform provides a homogenous screening method for measuring kinase activity by quantitating the amount of phospho-substrate in solution following a kinase reaction.
In the presence of kinase and ATP, the Ulight-peptide is phosphorylated and captured by an anti-phospho-substrate antibody, which brings the Eu chelate donor and Ulight acceptor dyes into close proximity. Upon excitation at 340 nm, the Eu chelate transfers its energy to the Ulight dye, resulting in a fluorescent light emission at 665 nm.
Titration of kinase at 1 mM ATP was achieved via the following protocol. After making serial three-fold dilutions of PASK (Invitrogen) in reaction buffer across the plate; 5 μl of kinase dilution and 5 μl substrate/ATP mix were added to the wells of the white Optiplate-384 (PerkinElmer). The contents of the plate were and incubated at RT for 1 h. The reaction was stopped by adding 5 μl of stop solution to each test well followed by mixing and incubation at RT for 10 minutes. 5 μl of detection mix (detection antibody diluted in detection buffer) was added; the contents of the plate were mixed and then incubated in the dark for 1 hour at RT. The signal was recorded at TR-FRET mode (665 nm/615 nm). The results were graphed to calculate the EC50.
Titration of ATP at the EC50 concentration of kinase to determine ATP Km,app. was performed using the following method. After making serial dilutions of ATP (Invitrogen), 5 μl of ATP dilution and 5 μl substrate/kinase mix were added to the wells of the white Optiplate-384 (PerkinElmer). The contents of the plate were and incubated at RT for 1 h. The reaction was stopped by adding 5 μl of stop solution to each test well followed by mixing and incubation at RT for 10 minutes. 5 μl of detection mix (detection antibody diluted in detection buffer) was added; the contents of the plate were mixed and then incubated in the dark for 1 hour at RT. The signal was recorded at TR-FRET mode (665 nm/615 nm). The results were graphed to calculate the EC50 as the ATP Km,app.
Compound screening was done via the following method. 10 mM stock solution of test compound in DMSO was prepared by dissolving test compound in DMSO at RT for 1 hour, and then sonicating at 100% output for 8 minutes. If compound is not soluble under this condition, it was diluted to 3 mM. Kinase reaction buffer was prepared containing 10 mM MgCl2, 50 mM HEPES, 1 mM EGTA, 0.01% TWEEN-20, 2 mM DTT. Serial dilutions of the test compounds were prepared at 4× final assay concentrations using Freedom EVO200® dispensing system as follows: 12×10^−5 M, 4×10^−5 M, 1.33×10^−5 M, 4.44×10^−6 M, 1.48×10^−6 M, 4.92×10^−7 M, 1.65×10^−7 M, […], 1.82×10^−8M, 6.09×10^−9, 2.03×10^−9 M. Test compounds (2.5 μl at 4× the final assay concentration) was added to wells using Freedom EVO200® dispensing system. As a positive control, 2.5 μl of positive compound was added to assay wells, and 2.5 μl of DMSO to assay wells as vehicle control. Kinase solution was prepared in reaction buffer at 2× final assay concentration. Kinase solution (5 μl) was added to each well of the assay plate. The substrate and ATP solution was prepared in kinase reaction buffer at 4× final assay concentration. The kinase reaction was started by adding 2.5 μl of substrate+ATP mix solution to each well of the assay plate. The plate is mixed on a plate shaker; then covered and allowed to react for 2 hours in the dark at 25° C. without shaking. The reaction was stopped by adding 5 μl of stop solution to each test well followed by mixing and incubation at RT for 10 minutes in the dark. 5 μl of detection mix (detection antibody diluted in detection buffer) was added; the contents of the plate were mixed and then incubated in the dark for 1 hour at RT. The signal was recorded at TR-FRET mode (665 nm/615 nm).

T1 sequence (Q96RG2 999-1251 limits assumed): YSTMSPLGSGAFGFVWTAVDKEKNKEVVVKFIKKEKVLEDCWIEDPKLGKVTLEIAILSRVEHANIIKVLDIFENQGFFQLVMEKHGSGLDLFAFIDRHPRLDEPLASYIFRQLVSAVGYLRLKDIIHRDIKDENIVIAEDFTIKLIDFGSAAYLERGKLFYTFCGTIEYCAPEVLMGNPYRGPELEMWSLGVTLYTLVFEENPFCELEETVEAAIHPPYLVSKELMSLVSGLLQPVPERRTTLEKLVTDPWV

| Structure (SMILES) | IC50 [µM] |
| --- | --- |
| COc1cc(-c2cc(=O)n3ncc(-c4noc5ccccc45)c3[nH]2)ccc1Cl [Example 50, 3-(benzo[d]isoxazol-3-yl)-5-(4-chloro-3-methoxyphenyl)pyrazolo[1,5-a]pyrimidin-7(4H)-one] | ≤ 10 |
| COc1cc(-c2cc(=O)n3ncc(-c4cc(C)no4)c3[nH]2)ccc1Cl [Example 52, 5-(4-chloro-3-methoxyphenyl)-3-(3-methylisoxazol-5-yl)pyrazolo[1,5-a]pyrimidin-7(4H)-one] | ≤ 10 |
| CCn1ncc2cc(-c3cc(=O)n4ncc(-c5ccnn5C)c4[nH]3)ccc21 [Example 53, 5-(1-ethyl-1H-indazol-5-yl)-3-(1-methyl-1H-pyrazol-5-yl)pyrazolo[1,5-a]pyrimidin-7(4H)-one] | ≤ 10 |
| O=c1cc(-c2ccc(Cl)c(Cl)c2)[nH]c2c(-c3noc4ccccc34)cnn12 [Example 60, 3-(benzo[d]isoxazol-3-yl)-5-(3,4-dichlorophenyl)pyrazolo[1,5-a]pyrimidin-7(4H)-one] | ≤ 10 |
| Cc1noc(-c2cnn3c(=O)cc(-c4ccc5occc5c4)[nH]c23)n1 [Example 62, 5-(benzofuran-5-yl)-3-(3-methyl-1,2,4-oxadiazol-5-yl)-4H,7H-pyrazolo[1,5-a]pyrimidin-7-one] | ≤ 10 |
| COc1cc(-c2cc(=O)n3ncc(-c4ncc(-c5ccccc5)o4)c3[nH]2)ccc1Cl [Example 63, 5-(4-chloro-3-methoxyphenyl)-3-(5-phenyloxazol-2-yl)-4H,7H-pyrazolo[1,5-a]pyrimidin-7-one] | ≤ 10 |
| Cc1csc(-c2cnn3c(=O)cc(-c4ccc5c(cnn5C)c4)[nH]c23)n1 [Example 72, 5-(1-methyl-1H-indazol-5-yl)-3-(4-methylthiazol-2-yl)pyrazolo[1,5-a]pyrimidin-7(4H)-one] | ≤ 10 |
| N#Cc1cc(-c2cc(=O)n3ncc(-c4ncco4)c3[nH]2)ccc1O [Example 75, 2-hydroxy-5-(3-(oxazol-2-yl)-7-oxo-4,7-dihydropyrazolo[1,5-a]pyrimidin-5-yl)benzonitrile] | ≤ 10 |
| CC(C)Oc1cc(-c2cc(=O)n3ncc(-c4ccnn4C)c3[nH]2)ccc1Cl [Example 76, 5-(4-chloro-3-isopropoxyphenyl)-3-(1-methyl-1H-pyrazol-5-yl)pyrazolo[1,5-a]pyrimidin-7(4H)-one] | ≤ 10 |
| CCOc1cc(-c2cc(=O)n3ncc(-c4ccnn4C)c3[nH]2)ccc1F [Example 78, 5-(3-ethoxy-4-fluorophenyl)-3-(1-methyl-1H-pyrazol-5-yl)pyrazolo[1,5-a]pyrimidin-7(4H)-one] | ≤ 10 |
| CCNC(=O)Cc1cnn2c(=O)cc(-c3ccc(Cl)c(OC)c3)[nH]c12 [Example 80, 2-[5-(4-chloro-3-methoxyphenyl)-7-oxo-4H,7H-pyrazolo[1,5-a]pyrimidin-3-yl]-N-ethylacetamide] | ≤ 10 |
| CNC(=O)Cc1cnn2c(=O)cc(-c3ccc(Cl)c(OC)c3)[nH]c12 [Example 81, 2-(5-(4-chloro-3-methoxyphenyl)-7-oxo-4,7-dihydropyrazolo[1,5-a]pyrimidin-3-yl)-N-methylacetamide] | ≤ 10 |
| CC(C)n1ncc2cc(-c3cc(=O)n4ncc(-c5ccnn5C)c4[nH]3)ccc21 [Example 88, 5-(1-isopropyl-1H-indazol-5-yl)-3-(1-methyl-1H-pyrazol-5-yl)pyrazolo[1,5-a]pyrimidin-7(4H)-one] | ≤ 10 |
| Cc1coc(-c2cnn3c(=O)cc(-c4ccc5onc(C)c5c4)[nH]c23)n1 [Example 90, 5-(3-methylbenzo[d]isoxazol-5-yl)-3-(4-methyloxazol-2-yl)pyrazolo[1,5-a]pyrimidin-7(4H)-one] | ≤ 10 |
| Cc1noc(-c2cnn3c(=O)cc(-c4ccc(Cl)c(OCC(F)(F)F)c4)[nH]c23)n1 [Example 92, 5-[4-chloro-3-(2,2,2-trifluoroethoxy)phenyl]-3-(3-methyl-1,2,4-oxadiazol-5-yl)-4H,7H-pyrazolo[1,5-a]pyrimidin-7-one] | ≤ 10 |
| Cc1noc(-c2cnn3c(=O)cc(-c4ccc5c(c4)OCCO5)[nH]c23)n1 [Example 97, 5-(2,3-dihydrobenzo[b][1,4]dioxin-6-yl)-3-(3-methyl-1,2,4-oxadiazol-5-yl)pyrazolo[1,5-a]pyrimidin-7(4H)-one] | ≤ 10 |
| Cc1noc(-c2cnn3c(=O)cc(-c4ccc5c(cnn5C5COC5)c4)[nH]c23)n1 [Example 99, 3-(3-methyl-1,2,4-oxadiazol-5-yl)-5-(1-(oxetan-3-yl)-1H-indazol-5-yl)pyrazolo[1,5-a]pyrimidin-7(4H)-one] | ≤ 10 |
| Cc1csc(-c2cnn3c(=O)cc(-c4ccc(Cl)c(Cl)c4)[nH]c23)n1 [Example 101, 5-(3,4-dichlorophenyl)-3-(4-methylthiazol-2-yl)pyrazolo[1,5-a]pyrimidin-7(4H)-one] | ≤ 10 |
| Cc1cnc(-c2cnn3c(=O)cc(-c4ccc(Cl)c(Cl)c4)[nH]c23)s1 [Example 102, 5-(3,4-dichlorophenyl)-3-(5-methylthiazol-2-yl)pyrazolo[1,5-a]pyrimidin-7(4H)-one] | ≤ 10 |
| CCCn1ncc2cc(-c3cc(=O)n4ncc(-c5ncc(C)o5)c4[nH]3)ccc21 [Example 103, 3-(5-methyloxazol-2-yl)-5-(1-propyl-1H-indazol-5-yl)pyrazolo[1,5-a]pyrimidin-7(4H)-one] | ≤ 10 |
| CCn1nc(C)c2cc(-c3cc(=O)n4ncc(-c5ncc(C)o5)c4[nH]3)ccc21 [Example 105, 5-(1-Ethyl-3-methyl-1H-indazol-5-yl)-3-(5-methyloxazol-2-yl)pyrazolo[1,5-a]pyrimidin-7(4H)-one] | ≤ 10 |
| Cc1cnc(-c2cnn3c(=O)cc(-c4ccc(Cl)cc4)[nH]c23)s1 [Example 106, 5-(4-Chlorophenyl)-3-(5-methylthiazol-2-yl)pyrazolo[1,5-a]pyrimidin-7(4H)-one] | ≤ 10 |
| Cc1cnc(-c2cnn3c(=O)cc(-c4ccc5c(cnn5C)c4)[nH]c23)o1 [Example 107, 5-(1-Methyl-1H-indazol-5-yl)-3-(5-methyloxazol-2-yl)pyrazolo[1,5-a]pyrimidin-7(4H)-one] | ≤ 10 |
| Cn1ncc2cc(-c3cc(=O)n4ncc(C#N)c4[nH]3)ccc21 [Example 108, 5-(1-methyl-1H-indazol-5-yl)-7-oxo-4H,7H-pyrazolo[1,5-a]pyrimidine-3-carbonitrile] | ≤ 10 |
| CCn1ncc2ccc(-c3cc(=O)n4ncc(-c5ncco5)c4[nH]3)cc21 [Example 109, 5-(1-ethyl-1H-indazol-6-yl)-3-(oxazol-2-yl)pyrazolo[1,5-a]pyrimidin-7(4H)-one] | ≤ 10 |
| Cc1noc2ccc(-c3cc(=O)n4ncc(-c5ncco5)c4[nH]3)cc12 [Example 110, 5-(3-methylbenzo[d]isoxazol-5-yl)-3-(oxazol-2-yl)pyrazolo[1,5-a]pyrimidin-7(4H)-one] | ≤ 10 |
| CCn1ncc2ccc(-c3cc(=O)n4ncc(-c5nc(C)no5)c4[nH]3)cc21 [Example 111, 5-(1-Ethyl-1H-indazol-6-yl)-3-(3-methyl-1,2,4-oxadiazol-5-yl)pyrazolo[1,5-a]pyrimidin-7(4H)-one] | ≤ 10 |
| CCn1ncc2ccc(-c3cc(=O)n4ncc(-c5ncc(C)o5)c4[nH]3)cc21 [Example 112, 5-(1-ethyl-1H-indazol-6-yl)-3-(5-methyloxazol-2-yl)pyrazolo[1,5-a]pyrimidin-7(4H)-one] | ≤ 10 |
| O=c1cc(-c2ccc(Cl)cn2)[nH]c2c(-c3ncco3)cnn12 [Example 113, 5-(5-chloropyridin-2-yl)-3-(1,3-oxazol-2-yl)-4H,7H-pyrazolo[1,5-a]pyrimidin-7-one] | > 10 |
